Laboratory results taken from patent US12390483B2, “Compounds and methods for treating neurological and cardiovascular conditions” (Astrocyte Pharmaceuticals, Inc., priority 2016, dated 2025).

Legend:
[1] = tested on: photothrombosis-induced stroke infarctions; test: Photothrombosis-induced stroke in mice, TTC-stained brain infarction size; assay type: in vivo
Method: Photothrombosis-induced Stroke: Photothrombosis was performed as described in Zheng et al 2010 (PloS One 5 (12): e14401). In brief, Rose Bengal is a fluorescent dye that when injected into the vasculature and excited, generates singlet oxygen that damages the endothelial wall and induces a local thrombosis (clot). Using this technique, mice were given a 0.1 mL tail-vein injection of sterilized Rose Bengal (RB, Sigma, U.S.A.) in artificial cerebral spinal fluid (aCSF). The RB concentration was 20 mg/mL. A cortical region was centered in the imaging field and illuminated with a green laser (543 nm, 5 mW) using a 0.8-NA 40× water-immersion objective (Nikon, Tokyo). The clot formation was monitored in real time until the targeted vessel or downstream capillaries were firmly occluded. Stable clots were subsequently identified by a non-fluorescent vessel segmentation ending with highly fluorescent regions. […] Treatments, MRS4322 (0.16 mg/kg; 0.5 μmol/kg) or MRS2365 (0.24 mg/kg; 0.5 μmol/kg) were introduced via intraperitoneal injections (i.p.). […] Animals and Photothrombosis-induced Stroke: Stroke was performed as described in Zheng et al 2010 (PloS One 5 (12): e14401). Female C57Bl/6 mice (4-6 months) were used in this study. From the methods of this manuscript: Mice were anesthetized at 3% isoflurane with 100% oxygen and subsequently maintained at 1% isoflurane through a nosecone. Depth of anesthesia was monitored and regulated according to vital signs, pinch withdrawal and eye blinks. Body temperature was maintained at 37° C. by a feedback-controlled heating pad (Gaymar T/Pump). Vital signs including oxygen saturation, respiratory rate, and heart rate were continuously monitored by using the MouseOx system (STARR Life Sciences). The hair on each mouse's head was trimmed and a small incision was made in the scalp to expose the skull. A custom-made stainless steel plate was glued to the skull with VetBond Tissue Adhesive (3M, St Paul, MN). A cranial thinned-skull imaging window was created over the right primary somatosensory cortex (˜1.5 mm posterior to Bregma and 2 mm lateral from midline) depending on the experiment. In brief, a large region of the skull was first thinned with the electric drill and then further thinned with a surgical blade. The final thickness of the thinned skull was approximately 50 μm. After the cranial imaging window was created, mice were transferred to microscope stage and used for photothrombosis or imaging experiments. For the repeat imaging experiments, the plate was carefully detached from the skull and the scalp was sutured (Ethicon 6-0 sild suture). After each experiment, the mice were either returned to cages until the next timepoint or sacrificed. All procedures were approved by the Institutional Animal Care and Use Committee (IACUC) at University of Texas Health Science Center at San Antonio. Thirty minutes following stroke or sham (uninjured), mice were treated with either vehicle (saline) or drugs (MRS4322, MRS2365, MRS5698 or Cl-IBMECA). Post photothrombotic infarction evaluation. The size of cerebral infarcts was evaluated using 2,3,5-Triphenyltetrazolium chloride (TTC) staining as described in Zheng et al 2010 (PloS One 5 (12): e14401). In brief, RB-induced lesions in brain slices were stained with TTC. TTC is a colorless dye that stains healthy brain tissue red when reduced by the mitochondrial enzyme succinyl dehydrogenase (Bederson J B et al., 1986). The absence of staining in necrotic tissue is then used to define the area of a brain infarction. Mice were sacrificed by cervical dislocation, their brains removed and then placed in ice cold HBSS for 3 minutes. […] The sections were fixed in 10% buffered formaldehyde solution overnight at 4° C. Slices were imaged on a flatbed scanner (HP scanjet 8300) for analysis of the lesion size at 1200 dpi. Photothrombosis-induced Stroke: Photothrombosis was performed as described in Zheng et al. 2010 (PloS One 5 (12): e14401). […]

GFAP expression = test: Traumatic brain injury (TBI) in mice, Western blot analysis for GFAP; assay type: in vivo; conditions: summary statement
Method: Animals and traumatic brain injury (TBI): TBI was performed with a controlled closed skull injury model as described in […] al. 2012 (J. Neurotrauma 30, 55-66). Following the method described therein, a pneumatic impact device was used to generate a moderate TBI leaving the skull and dura matter intact. To achieve this, C57BL/6 mice were anesthetized with isoflurane (3% induction, 1% maintenance) in 100% oxygen. A body temperature of 37° C. was maintained using a temperature-controlled heated surgical table. A small midline incision was made on the scalp using aseptic surgical techniques. A 5 mm stainless steel disc was positioned on the skull and fixed using superglue on the right parietal bone between bregma and lamda over the somatosensory cortex. The mouse was then positioned on a stage directly under the pneumatic impact tip. […] Scalp incisions were closed using 4-0 nylon braided suture and antibiotic ointment applied to the incision. Mice were placed in a Thermo-Intensive Care Unit (Braintree Scientific model FV-1; 37° C.; 27% 02) and monitored until fully awake and moving freely. […] Western Blot Analysis for GFAP: At selected survival times, mice were anesthetized under isoflurane and sacrificed. The brain was removed and placed on ice for dissection into impacted and non-impacted brain hemispheres. […] The homogenate was transferred to a 2 mL tube and centrifuged at 1000 g for 10 minutes at 4° C. and the supernatant was collected and analyzed. Protein concentration was determined by the BCA assay using a 1:50 dilution. 100 μg of protein was removed as an aliquot for each sample and Laemmli buffer containing β-mercaptoethanol added and the sample placed in a heat block for 3 minutes at 95° C. Samples were loaded on a 12% gel and ran at 80 V for 20 minutes followed by 40 minutes at 130 V. Samples were transferred to nitrocellulose membrane at 100 V for 1 hour. The membrane was blocked with 5% milk in TBS-T for 30 minutes. GFAP (1:1000-Imgenex IMG-5083-A) was added and placed at 4° C. overnight. The membrane was washed with TBS-T three times for 10 minutes. Secondary antibody for GFAP (Donkey anti-rabbit HRP conjugated (ImmunoJackson Laboratories; 711-035-152; 1:20000) was applied at room temperature for 1 hour. The membranes were washed with TBS-T for 15 minutes (3 times) and developed using the Western Lightning Plus-ECL kit (PerkinElmer, Inc.) following manufacturer's directions.

Human A3 = biological target: T1, Human A3 (Homo sapiens, UniProt P0DMS8); conditions: J. Med. Chem. 2002 45:4471-4484 (Gao et al.); cited from earlier work
T1 sequence (P0DMS8 1-318): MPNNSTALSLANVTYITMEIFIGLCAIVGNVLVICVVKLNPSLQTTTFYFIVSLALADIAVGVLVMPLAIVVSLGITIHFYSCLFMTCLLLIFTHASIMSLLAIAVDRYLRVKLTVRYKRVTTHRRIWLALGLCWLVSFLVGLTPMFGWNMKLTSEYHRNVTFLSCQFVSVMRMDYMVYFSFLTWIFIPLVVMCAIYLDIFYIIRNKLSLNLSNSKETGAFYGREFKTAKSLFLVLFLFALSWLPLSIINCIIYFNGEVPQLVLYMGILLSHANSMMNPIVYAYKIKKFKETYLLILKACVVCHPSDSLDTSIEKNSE

[2] = mouse plasma and tissue; Tosh et al. Purinergic Signalling (2015) 11:371-387; cited from earlier work

In the case of `CCCOC(=O)c1c(-c2ccccc2)nc(CC)c(C(=O)SCC)c1CCC` [MRS1523, reference compound], the “effect of antagonist on neuroprotection of MRS4322 and MRS2365 treatments after stroke” value ([1]; MRS1523 2 mg/kg i.p. at 0 and 2 hours) is reported as “inhibits neuroprotection”.
In the case of `CNC(=O)[C@H]1O[C@@H](n2cnc3c(NCc4cccc(I)c4)nc(Cl)nc32)[C@H](O)[C@@H]1O` [Cl-IB-MECA, 2-Chloro-N^6-(3-iodobenzyl)-adenosine-5′-N-methyluronamide, reference compound], the “efficacy in the mouse TBI model” value (GFAP expression) is reported as “weakly active”.
In the case of `Nc1nc(Cl)nc2c1ncn2[C@H]1[C@H](O)[C@H](O)[C@]2(CO)C[C@H]12` [MRS1873], the EC50 (Human A3) is listed as 803 nM and the “size of the brain infarction (TTC staining)” value ([1]; Example 7: mice, 100 ul of 100 uM i.p. within 30 minutes of clot formation, 24 hours after stroke, versus vehicle) is listed as “significantly reduced”.
For `CNC(=O)[C@@]12C[C@@H]1[C@@H](n1cnc3c(NCc4cccc(Cl)c4)nc(C#Cc4ccc(F)c(F)c4)nc31)[C@H](O)[C@@H]2O` [MRS5698, reference compound], the “protein binding reported in the literature” value [2] is given as 99.88% and the “size of brain infarctions in mice pretreated with the A3 receptor antagonist MRS1523” value ([1]; MRS1523 2 mg/kg i.p. at 0 and 2 hours, treatment within 30 minutes of clot formation, 24 hours) is given as “not reduced”.
